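Values below derive from 48-hour exposures of cells grown in 96-well plates, with endpoints linearly interpolated between the two concentrations bracketing the appropriate inhibition level. GI50: concentration for 50% inhibition of growth.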 Calls of active or inactive are those of the source. Rule as the data show it: active = GI50 up to about 1.1 µM and inactive = higher.
What was measured:
Assay in all cases: NCI-60 cell line screen, 48 h
K562 = test system: K562
SR = test system: SR
MOLT-4 = test system: MOLT-4
T47D = test system: T47D
SK-MEL-5 = test system: SK-MEL-5
OVCAR-5 = test system: OVCAR-5
OVCAR-4 = test system: OVCAR-4
CAKI-1 = test system: CAKI-1
OVCAR-3 = test system: OVCAR-3
DU-145 = test system: DU-145
SK-MEL-28 = test system: SK-MEL-28
Hs-578T = test system: Hs-578T
NCI/ADR-RES = test system: NCI/ADR-RES
SK-OV-3 = test system: SK-OV-3
HT-29 = test system: HT-29
UACC-257 = test system: UACC-257
UACC-62 = test system: UACC-62
RXF 393 = test system: RXF 393
SNB-75 = test system: SNB-75
SN12C = test system: SN12C
ACHN = test system: ACHN
NCI-H460 = test system: NCI-H460
HCT-15 = test system: HCT-15
EKVX = test system: EKVX
SF-539 = test system: SF-539
NCI-H522 = test system: NCI-H522
SF-295 = test system: SF-295
KM12 = test system: KM12
TK-10 = test system: TK-10
MCF7 = test system: MCF7
RPMI-8226 = test system: RPMI-8226
HCC 2998 = test system: HCC 2998
MDA-MB-435 = test system: MDA-MB-435
786-0 = test system: 786-0
MDA-N = test system: MDA-N
U-251 = test system: U-251
BT-549 = test system: BT-549
A498 = test system: A498
SW-620 = test system: SW-620
OVCAR-8 = test system: OVCAR-8
NCI-H226 = test system: NCI-H226
HOP-62 = test system: HOP-62
PC-3 = test system: PC-3
M14 = test system: M14
COLO 205 = test system: COLO 205
UO-31 = test system: UO-31
SF-268 = test system: SF-268
A549 = test system: A549
NCI-H23 = test system: NCI-H23
SNB-19 = test system: SNB-19
HCT-116 = test system: HCT-116
HOP-92 = test system: HOP-92
MDA-MB-231 = test system: MDA-MB-231
IGROV-1 = test system: IGROV-1
SK-MEL-2 = test system: SK-MEL-2
Malme-3M = test system: Malme-3M
LOX IMVI = test system: LOX IMVI

**Q.** Which results are given for `N#CCCN(CCC#N)c1ccc(C(/N=N/c2ccc(Cl)cc2)=N\c2ccccc2)cc1`?
**A.** GI50 (K562): 41.7 µM (inactive); GI50 (SR): 16 µM (inactive); GI50 (MOLT-4): 22.7 µM (inactive); GI50 (T47D): 8.55 µM (inactive); GI50 (SK-MEL-5): 1.24 µM (inactive); GI50 (OVCAR-5): 12.4 µM (inactive); GI50 (OVCAR-4): 11.6 µM (inactive); GI50 (CAKI-1): 12.2 µM (inactive); GI50 (OVCAR-3): 9.77 µM (inactive); GI50 (DU-145): 13.4 µM (inactive); GI50 (SK-MEL-28): 15.3 µM (inactive); GI50 (Hs-578T): 18.9 µM (inactive); GI50 (NCI/ADR-RES): 10.8 µM (inactive); GI50 (SK-OV-3): 13.2 µM (inactive); GI50 (HT-29): 17.9 µM (inactive); GI50 (UACC-257): 7.83 µM (inactive); GI50 (UACC-62): 6.49 µM (inactive); GI50 (RXF 393): 15.4 µM (inactive); GI50 (SNB-75): 17.4 µM (inactive); GI50 (SN12C): 18.4 µM (inactive); GI50 (ACHN): 13.4 µM (inactive); GI50 (NCI-H460): 7.78 µM (inactive); GI50 (HCT-15): 5.93 µM; GI50 (EKVX): 12.1 µM (inactive); GI50 (SF-539): 14.9 µM (inactive); GI50 (NCI-H522): 15.1 µM (inactive); GI50 (SF-295): 1.06 µM (active); GI50 (KM12): 11.4 µM (inactive); GI50 (TK-10): 15.5 µM (inactive); GI50 (MCF7): 11.7 µM (inactive); GI50 (RPMI-8226): 43.6 µM (inactive); GI50 (HCC 2998): 6.55 µM (inactive); GI50 (MDA-MB-435): 11 µM (inactive); GI50 (786-0): 14.9 µM (inactive); GI50 (MDA-N): 10.9 µM (inactive); GI50 (U-251): 17.6 µM (inactive); GI50 (BT-549): 3.33 µM (inactive); GI50 (A498): 17.6 µM (inactive); GI50 (SW-620): 18 µM (inactive); GI50 (OVCAR-8): 15.1 µM (inactive); GI50 (NCI-H226): 16 µM (inactive); GI50 (HOP-62): 13.2 µM (inactive); GI50 (PC-3): 12.6 µM (inactive); GI50 (M14): 12.9 µM (inactive); GI50 (COLO 205): 3.2 µM (inactive); GI50 (UO-31): 8.91 µM (inactive); GI50 (SF-268): 13.2 µM (inactive); GI50 (A549): 14.1 µM (inactive); GI50 (NCI-H23): 12.6 µM (inactive); GI50 (SNB-19): 12.2 µM (inactive); GI50 (HCT-116): 12.1 µM (inactive); GI50 (HOP-92): 16.4 µM (inactive); GI50 (MDA-MB-231): 18.1 µM (inactive); GI50 (IGROV-1): 11.7 µM (inactive); GI50 (SK-MEL-2): 2.09 µM (inactive)

**Q.** Which results are given for `N=C(N)N/N=C(/c1ccccc1)c1ccc(O)cc1O`?
**A.** GI50 (K562): 46.3 µM (inactive); GI50 (SR): 20.8 µM (inactive); GI50 (T47D): 45.3 µM (inactive); GI50 (SK-MEL-5): 25.8 µM (inactive); GI50 (OVCAR-5): 33 µM (inactive); GI50 (OVCAR-4): 57 µM (inactive); GI50 (CAKI-1): 51.5 µM (inactive); GI50 (OVCAR-3): 26.9 µM (inactive); GI50 (DU-145): 33 µM (inactive); GI50 (SK-MEL-28): 72.6 µM (inactive); GI50 (Hs-578T): 22 µM (inactive); GI50 (NCI/ADR-RES): 95.3 µM (inactive); GI50 (SK-OV-3): 33.4 µM (inactive); GI50 (HT-29): 19.7 µM (inactive); GI50 (UACC-257): 35.6 µM (inactive); GI50 (UACC-62): 30.1 µM (inactive); GI50 (RXF 393): 45 µM (inactive); GI50 (Malme-3M): 22.6 µM (inactive); GI50 (SNB-75): 49 µM (inactive); GI50 (SN12C): 29.4 µM (inactive); GI50 (ACHN): 45.9 µM (inactive); GI50 (NCI-H460): 27.4 µM (inactive); GI50 (HCT-15): 39.4 µM; GI50 (EKVX): 22.2 µM (inactive); GI50 (SF-539): 18.5 µM (inactive); GI50 (NCI-H522): 15.3 µM (inactive); GI50 (LOX IMVI): 34.9 µM (inactive); GI50 (SF-295): 28.2 µM (inactive); GI50 (KM12): 30.5 µM (inactive); GI50 (TK-10): 31.6 µM (inactive); GI50 (MCF7): 30.7 µM (inactive); GI50 (RPMI-8226): 30.5 µM (inactive); GI50 (HCC 2998): 16.9 µM (inactive); GI50 (MDA-MB-435): 19.1 µM (inactive); GI50 (786-0): 29.2 µM (inactive); GI50 (MDA-N): 11.7 µM (inactive); GI50 (U-251): 22.5 µM (inactive); GI50 (BT-549): 37.5 µM (inactive); GI50 (A498): 21.9 µM (inactive); GI50 (SW-620): 36.7 µM (inactive); GI50 (OVCAR-8): 24.6 µM (inactive); GI50 (NCI-H226): 29.9 µM (inactive); GI50 (HOP-62): 32 µM (inactive); GI50 (PC-3): 29 µM (inactive); GI50 (M14): 23 µM (inactive); GI50 (COLO 205): 17.5 µM (inactive); GI50 (UO-31): 46.1 µM (inactive); GI50 (SF-268): 32.6 µM (inactive); GI50 (A549): 38.1 µM (inactive); GI50 (NCI-H23): 31.8 µM (inactive); GI50 (SNB-19): 40.6 µM (inactive); GI50 (HCT-116): 29 µM (inactive); GI50 (HOP-92): 36.6 µM (inactive); GI50 (MDA-MB-231): 45.1 µM (inactive); GI50 (IGROV-1): 25.1 µM (inactive); GI50 (SK-MEL-2): 45.7 µM (inactive)
